Holding throughout (test): inhibition of tumour cell growth, NCI panel, 48 h
For experiment [1], the system named is SF-539 CNS.
Experiment [2] has as its system COLO 205 colon.
For experiment [3], the system named is T-47D breast.
The subject of experiment [4] is KM12 colon.
The test system of experiment [5] is CCRF-CEM leukemia.
The subject of experiment [6] is SK-MEL-28 melanoma.
The test system of experiment [7] is OVCAR-4 ovarian.
Experiment [8] has as its system SF-295 CNS.
The test system of experiment [9] is MCF7 breast.
Experiment [10] has as its system OVCAR-5 ovarian.

Molecules are shown by their SMILES.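 48-hour exposure; five concentrations; linearly interpolated endpoints. Here, GI50 denotes the concentration required for 50% inhibition of growth. TGI: total growth inhibition.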

Turning to `O=C(/C=C/C12c3ccccc3C(c3ccccc31)C1C(=O)NC(=O)C12)c1ccco1` (stereo not given), the GI50 was 2.04 µM in experiment [1]; 3.27 µM in experiment [2]; 3.43 µM in [3]; 2.36 µM in experiment [4]; 1.24 µM in experiment [5]; 2.37 µM in [6]. Further, the GI50 in experiment [7] is 3.45 µM; in experiment [8], 3.33 µM; in [9], 2.49 µM; in experiment [10] it was 3.15 µM. The TGI was determined as 4.16 µM in experiment [1]; 9.32 µM in [2]; 20.3 µM in experiment [3]; 5.99 µM in experiment [4]; 9.57 µM in experiment [5]; 4.73 µM in [6]. Moreover, the TGI in experiment [7] was determined as 13.5 µM; in [8] it was 11.6 µM; in experiment [9] it was 12.6 µM; in experiment [10], 10.7 µM.

With `O=C(Nc1cccc(-c2nc3ccccc3[nH]2)c1)c1cccc(NC(=O)c2ccco2)c1`, the GI50 in experiment [1] is 1.49 µM; in experiment [2], 3.49 µM; in experiment [3] it was 1.75 µM; in experiment [4], 2.27 µM; in [5] it was 3.99 µM; in experiment [6], 1.75 µM. Moreover, the GI50 was 1.73 µM in [7], 1.92 µM in experiment [8], 1.52 µM in [9] and 3.1 µM in experiment [10]. Besides, the TGI in experiment [1] was determined as 2.88 µM; in experiment [2] it was 10.6 µM; in experiment [3], 3.79 µM; in experiment [4] it was 5.61 µM; in experiment [5], 16.1 µM; in experiment [6], 3.31 µM. Moreover, the TGI was found to be 3.1 µM in [7], 4.41 µM in experiment [8], 3.02 µM in experiment [9] and 11.1 µM in [10].

Regarding `O=C(/C=C/c1ccc2c(c1)OCO2)c1ccccc1`, the GI50 in experiment [1] is 20.5 µM; in [2], 19.1 µM; in experiment [3], 15.5 µM; in [4], 3.02 µM; in experiment [5], 19.1 µM; in experiment [6] it was 19.5 µM. For the same compound, the GI50 in [7] is 24.8 µM; in experiment [8], 11.5 µM; in experiment [9] it was 4.02 µM; in experiment [10], 16.2 µM. In addition, the TGI in experiment [1] is 54.5 µM; in experiment [2], 36.7 µM; in experiment [3], 39.5 µM; in experiment [4] it was 14 µM; in experiment [5] it was 81.2 µM; in [6] it was 41.4 µM. In addition, the TGI is above 100 µM in experiment [7], 28.8 µM in experiment [8], 30 µM in experiment [9] and 36.8 µM in [10].

Regarding `C=C1C(=O)O[C@H]2[C@H]1CC/C(Cn1cc(Cn3ccc4cc(Cl)ccc43)nn1)=C\CC[C@@]1(C)O[C@@H]21`, the GI50 in experiment [1] is 1.57 µM; in [2], 1.69 µM; in [3], 1.72 µM; in experiment [4], 2.01 µM; in [5] it was 0.338 µM; in [6] it was 1.73 µM. Also, the GI50 in experiment [7] is 1.53 µM; in [8], 3.98 µM; in experiment [9], 1.25 µM; in [10], 1.65 µM. Besides, the TGI in experiment [1] worked out at 2.97 µM; in experiment [2], 3.5 µM; in experiment [3], 4.32 µM; in experiment [4] it was 4.24 µM; in experiment [5], 1.18 µM; in experiment [6], 3.27 µM. The TGI in [7] was 3.02 µM; in experiment [8], 17 µM; in [9], 3.02 µM; in experiment [10] it was 3.54 µM.

Turning to `COc1ccc(C(=O)c2ccc(OC)cc2OC)cc1`, the GI50 is 2.81 µM in experiment [1]; 1.65 µM in experiment [2]; 3.09 µM in [3]; 2.22 µM in experiment [4]; 3.23 µM in experiment [5]; 4.05 µM in experiment [6]. For the same compound, the GI50 in experiment [7] is 6.54 µM; in experiment [8], 2.33 µM; in experiment [9], 2.75 µM; in experiment [10], 8.79 µM. Further, the TGI was 22.4 µM in [1]; 3.51 µM in experiment [2]; above 100 µM in experiment [3]; 24.7 µM in experiment [4]; above 100 µM in experiment [5]; above 100 µM in experiment [6]. In addition, the TGI in experiment [7] is above 100 µM; in [8], 9.4 µM; in [9] it was above 100 µM; in [10], above 100 µM.

On to `O=S(=O)(NCCNc1cc(-c2cn(-c3ccccc3)nc2-c2cccc(O)c2)ccn1)c1ccc(F)cc1`, for which the GI50 in experiment [1] is 1.71 µM; in experiment [2], 1.91 µM; in experiment [3], 2.01 µM; in experiment [4], 2.34 µM; in experiment [5], 3.28 µM; in [6], 2.03 µM. Also, the GI50 in [7] is 3.05 µM; in [8], 1.75 µM; in experiment [9], 2.19 µM; in experiment [10], 1.93 µM. In addition, the TGI was 3.95 µM in [1]; 4.34 µM in experiment [2]; 6.86 µM in experiment [3]; 8.26 µM in experiment [4]; 17.3 µM in experiment [5]; 5.39 µM in experiment [6]. In addition, the TGI was above 100 µM in [7], 3.9 µM in experiment [8], 6.66 µM in experiment [9] and 5.69 µM in experiment [10].

For `O=C(CCc1ccc(O)c(O)c1)c1ccc(O)c(O)c1O`, the TGI was 37.7 µM in experiment [1]; 34.3 µM in [2]; 66.3 µM in experiment [3]; 36.2 µM in experiment [4]; 47.3 µM in experiment [5]; above 100 µM in experiment [6]. The TGI in experiment [7] was found to be 78.5 µM; in [8], 36.7 µM; in [9] it was 42 µM; in experiment [10], 49.4 µM.

In the case of `CCN(CC)CCCC(C)N/C(c1cccc(OC)c1)=c1\c(=O)[nH]n(-c2c3ccccc3nc3ccccc23)c(=O)\c1=C(/NC(C)CCCN(CC)CC)c1cccc(OC)c1` (stereo not given), the GI50 in experiment [1] is 1.67 µM; in [2], 1.22 µM; in experiment [3] it was 2.16 µM; in [4] it was 1.18 µM; in [5], 0.482 µM; in [6] it was 1.69 µM. Further, the GI50 in experiment [7] is 1.22 µM; in [8], 1.74 µM; in experiment [9], 0.507 µM; in [10], 1.79 µM. In addition, the TGI in experiment [1] stood at 3.21 µM; in experiment [2], 2.79 µM; in experiment [3], 5.97 µM; in [4], 6.51 µM; in [5] it was 3.93 µM; in experiment [6], 3.17 µM. Moreover, the TGI in experiment [7] amounted to 4.11 µM; in [8], 3.86 µM; in [9], 3.41 µM; in experiment [10] it was 5.21 µM.

For `CN1CCN(Cc2ccc(NC(=O)c3[nH]ncc3Nc3ccnc4ccsc34)cc2)CC1`, the GI50 was 1.35 µM in experiment [1]; 1.42 µM in [2]; 4.95 µM in experiment [3]; 2.35 µM in experiment [4]; 2.45 µM in [5]; 5.23 µM in experiment [6]. For the same compound, the GI50 in experiment [7] was 2.32 µM; in [8] it was 3.73 µM; in experiment [9], 0.489 µM; in [10], 4.08 µM. Besides, the TGI in experiment [1] was found to be 3.42 µM; in experiment [2] it was 8.32 µM; in experiment [3], 50.6 µM; in [4], 11.2 µM; in [5], 9.26 µM; in experiment [6] it was 18.4 µM. Also, the TGI in [7] turned out to be 7.47 µM; in experiment [8] it was 14.2 µM; in [9] it was 11.7 µM; in experiment [10], 14.7 µM.

`O=C1C=CC(=O)N1c1ccc2c(c1)Cc1cc(NC(=O)C(F)(F)F)ccc1-2`: the TGI worked out at 32.8 µM in experiment [1]; 26 µM in experiment [2]; 53.2 µM in experiment [3]; 40.6 µM in experiment [4]; 16.9 µM in experiment [5]; 34.4 µM in experiment [6]. In addition, the TGI was 31.2 µM in [7], above 100 µM in [8], 34.4 µM in experiment [9] and 31.8 µM in experiment [10].

Regarding `C/C(=C\c1ccn(-c2ccc(N)cc2C(F)(F)F)n1)[C@@H]1C[C@@H]2O[C@]2(C)CCC[C@H](C)[C@H](O)[C@@H](C)C(=O)C(C)(C)[C@@H](O)CC(=O)O1`, the GI50 in [1] was 0.305 µM; in [2], 0.25 µM; in [3], 0.658 µM; in [4] it was 0.254 µM; in experiment [5] it was 0.413 µM; in experiment [6], 1.06 µM. Besides, the GI50 in [7] was above 11.1 µM; in experiment [8] it was 0.314 µM; in experiment [9] it was 0.0859 µM; in [10], 0.519 µM. The TGI in experiment [1] is 1.86 µM; in experiment [2] it was 0.773 µM; in [3], above 11.1 µM; in [4] it was above 11.1 µM; in [5], above 11.1 µM; in experiment [6] it was above 11.1 µM. Moreover, the TGI in experiment [7] was above 11.1 µM; in experiment [8], 2.19 µM; in [9], above 11.1 µM; in experiment [10], above 11.1 µM.

The record behind these values is PubChem BioAssay (NCI).
